Assay results published in paper PMC6270338, “Diterpenylquinone Hybrids: Synthesis and Assessment of Gastroprotective Mechanisms of Action in Human Cells” (Molecules, 2013).

Tests used:
[1] = system: human erythrocyte membranes; assay: Inhibition of lipoperoxidation in erythrocyte membranes; format: biochemical
[2] = system: human erythrocyte membranes; assay: as above; format: biochemical; settings: at 100 µg/mL
Protocol: The inhibition of lipid peroxidation was determined using human erythrocyte membranes. The compounds were tested at 100 µg/mL.

[3] = Cytotoxicity, neutral red uptake assay, AGS; format: cell-based; settings: human, AGS gastric epithelial cells, confluent monolayer, read-out: IC50 ± SD, cytotoxicity AGS
Protocol: (§1) Human lung fibroblasts MRC-5 (ATCC CCL-171) were grown in minimum essential Eagle medium (MEM) with Earles’s salts and 2 mM L-glutamine (Sigma-Aldrich Co.). Human epithelial gastric cells AGS (ATCC CRL-1739) were grown in Ham F-12 medium containing 1 mM L-glutamine. Both media were supplemented with 1.5 g/L sodium bicarbonate (Sigma-Aldrich Co.), 10% heat-inactivated fetal bovine serum (FBS), 100 IU/mL penicillin and 100 µg/mL streptomycin.Both cell lines were grown as monolayers in a humidified incubator with 5% CO2 in air at 37 °C. Culture media, antibiotics and FBS were obtained from Invitrogen Corp.
(§2) Cytotoxicity values were required as a reference to determine the working concentrations in the subsequent experiments. Briefly, confluent cultures of MRC-5 and AGS cells were treated during 24 h with medium containing the compounds at concentrations ranging from 0 up to 1,000 µM. The products were first dissolved in DMSO (1% final concentration) and then in the corresponding culture medium supplemented with 2% FBS. Untreated cells were used as controls. Cell viability was determined at the end of the incubation by means of the neutral red uptake (NRU) assay. Lansoprazole (Sigma-Aldrich Co., min. 98% by TLC) was used as reference compound.

[4] = Cytotoxicity, neutral red uptake assay, MRC-5; format: cell-based; settings: human, MRC-5 lung fibroblasts, confluent monolayer, confluent MRC-5, 24 h, read-out: IC50 ± SD, cytotoxicity MRC-5
Protocol: as §1, §2

AGS cells [5] = assay: Cellular reduced glutathione (GSH) content of AGS cells; format: cell-based, human; settings: 4 h; for GSH: post-confluent AGS, control 13.6 ± 0.7
Protocol: Untreated cells were used as controls. […] After incubation, the GSH content was determined using a colorimetric kit (BioAssays Systems, Hayward, CA, USA). Results are expressed as nanomol of soluble reduced sulfhydryls/10^6 cells.

AGS cells [6] = assay: Prostaglandin E2 (PGE2) content of AGS cells; format: cell-based, human; settings: 1 h; for PGE2: post-confluent AGS, control 52 ± 5
Protocol: One day after confluence, AGS cells were treated for 1 h with the compounds at 1/2 and 1/4 of the respective IC50 values. A control with medium only was included. Indomethacin (100 μM) was used as standard inhibitor of prostaglandin synthesis (Sigma-Aldrich Co., min. 99% by TLC). After incubation, PGE2 content was determined by means of a specific enzyme immunoassay kit (R & D Systems KGE004B, Minneapolis, MN, USA) and values were calculated according to the manufacturer instructions. Results are expressed as pg/well.

AGS cells [7] = assay: Sodium taurocholate (NaT)-induced damage to AGS cells; format: cell-based, human; settings: 60 min pre-treatment, then 10 mM NaT 30 min
Protocol: The effect of sodium taurocholate (NaT) on cell viability was determined according to [15]. […] Then, 10 mM NaT was added to all wells for 30 min. Untreated cells were used as controls. […] After incubation, the NRU assay was carried out.

O.Oc1cc(O)c2c(c1)O[C@H](c1ccc(O)c(O)c1)[C@@H](O)C2 [Catechin, reference compound]
IC50, inhibition of the lipoperoxidation [1]: IC50 75.4 ± 6.0 µg/mL

CC(C)=CCC1=C(O)C(=O)c2ccccc2C1=O [Compound 1, Lapachol]
% Inhibition of the lipoperoxidation [2]: 38%
IC50 at 24 h [3]: 571 ± 28 µM
IC50 at 24 h [4]: > 1000 µM
GSH (AGS cells [5]; 72 µM): 13.9 ± 0.9 nmol/10^6 cells
GSH (AGS cells [5]; 143 µM): 14.1 ± 0.8 nmol/10^6 cells
fold induction at 143 µM (AGS cells [6]; Homo sapiens, AGS, 143 µM, read-out: increase in PGE2 content): 2.3
fold induction at 286 µM (AGS cells [6]; Homo sapiens, AGS, 286 µM, read-out: increase in PGE2 content): 2.5
PGE2 (AGS cells [6]; 143 µM): 117 ± 10 pg/mL
PGE2 (AGS cells [6]; 286 µM): 132 ± 12 pg/mL

CC(C)CCC1=C(O)C(=O)c2ccccc2C1=O [Compound 2, Dihydroprenyl lapachol]
IC50 at 24 h [3]: 292 ± 12 µM
IC50 at 24 h [4]: 611 ± 42 µM
GSH (AGS cells [5]; 37 µM): 13.6 ± 0.7 nmol/10^6 cells
GSH (AGS cells [5]; 73 µM): 13.8 ± 0.7 nmol/10^6 cells
IC50, inhibition of the lipoperoxidation [1]: IC50 25.4 ± 2.4 µg/mL
reduction in cell viability, NaT-induced damage (AGS cells [7]; 37 µM): 23%
reduction in cell viability, NaT-induced damage (AGS cells [7]; 73 µM): 23%
reduction in cell viability, NaT-induced damage (AGS cells [7]; 146 µM): 27%

CC(C)CCC1=C(O)C(=O)C2=C(CCCC2)C1=O [Compound 3, Dihydroprenyl-5,6,7,8-tetrahydrolapachol]
IC50 at 24 h [3]: 87 ± 4 µM
IC50 at 24 h [4]: 307 ± 22 µM
GSH (AGS cells [5]; 11 µM): 14.3 ± 0.7 nmol/10^6 cells
GSH (AGS cells [5]; 22 µM): 13.0 ± 0.5 nmol/10^6 cells
IC50, inhibition of the lipoperoxidation [1]: IC50 33.3 ± 2.3 µg/mL

C=C1CCC2[C@](C)(CCC[C@]2(C)C(=O)O)[C@H]1CC[C@@H](C)CC(=O)O (stereo partly shown) [Compound 4, Junicedric acid]
% Inhibition of the lipoperoxidation [2]: 25%
IC50 at 24 h [3]: 383 ± 23 µM
IC50 at 24 h [4]: 439 ± 26 µM
GSH (AGS cells [5]; 48 µM): * 18.4 ± 1.1 nmol/10^6 cells
GSH (AGS cells [5]; 96 µM): * 17.2 ± 1.0 nmol/10^6 cells

CC(CCC1C(C)CCC2C(C)(C(=O)O)CCCC12C)CC(=O)O (stereo not drawn) [Compound 6, 17β-Dihydrojunicedric acid]
% Inhibition of the lipoperoxidation [2]: 30%
IC50 at 24 h [3]: 283 ± 17 µM
IC50 at 24 h [4]: 163 ± 5 µM
activation at 37 µM (AGS cells [5]; Homo sapiens, AGS, 37 µM, read-out: increase of GSH content compared to untreated controls): 43%
activation at 71 µM (AGS cells [5]; Homo sapiens, AGS, 71 µM, read-out: increase of GSH content compared to untreated controls): 60%
GSH (AGS cells [5]; 37 µM): * 19.5 ± 0.9 nmol/10^6 cells
GSH (AGS cells [5]; 71 µM): ** 21.7 ± 1.3 nmol/10^6 cells

C=C1CCC2[C@](C)(CCC[C@]2(C)C(=O)O)[C@H]1CC[C@@H](C)CC(=O)OC1=C(CC=C(C)C)C(=O)c2ccccc2C1=O (stereo partly shown) [Compound 7, Lapachoyl junicedrate]
% Inhibition of the lipoperoxidation [2]: 10%
IC50 at 24 h [3]: 143 ± 6 µM
IC50 at 24 h [4]: 221 ± 13 µM
activation at 18 µM (AGS cells [5]; Homo sapiens, AGS, 18 µM, read-out: increase of GSH content compared to untreated controls): 18%
activation at 36 µM (AGS cells [5]; Homo sapiens, AGS, 36 µM, read-out: increase of GSH content compared to untreated controls): 23%
GSH (AGS cells [5]; 18 µM): 16.1 ± 0.9 nmol/10^6 cells
GSH (AGS cells [5]; 36 µM): * 16.7 ± 0.7 nmol/10^6 cells

C=C1CCC2[C@](C)(CCC[C@]2(C)C(=O)OC)[C@H]1CC[C@@H](C)CC(=O)OC1=C(CCC(C)C)C(=O)C2=C(CCCC2)C1=O (stereo partly shown) [Compound 12, Dihydroprenyl-5,6,7,8-tetrahydrolapachoyl junicedrate methyl ester]
% Inhibition of the lipoperoxidation [2]: 37%
IC50 at 24 h [3]: > 1000 µM
IC50 at 24 h [4]: 667 ± 40 µM
GSH (AGS cells [5]; 125 µM): 13.7 ± 1.0 nmol/10^6 cells
GSH (AGS cells [5]; 250 µM): 13.9 ± 0.8 nmol/10^6 cells

COC(=O)[C@@]1(C)CCC[C@@]2(C)C1CC[C@H](C)[C@@H]2CC[C@@H](C)CC(=O)OC1=C(CC=C(C)C)C(=O)c2ccccc2C1=O (stereo partly drawn) [Compound 14, Lapachoyl 17β-dihydrojunicedrate methyl ester]
IC50 at 24 h [3]: 916 ± 54 µM
IC50 at 24 h [4]: 727 ± 48 µM
GSH (AGS cells [5]; 115 µM): 14.4 ± 0.5 nmol/10^6 cells
GSH (AGS cells [5]; 229 µM): 12.7 ± 0.4 nmol/10^6 cells
IC50, inhibition of the lipoperoxidation [1]: IC50 19.7 ± 1.4 µg/mL

CC(C)CCC1=C(OC(=O)C[C@H](C)CC[C@H]2[C@@H](C)CCC3[C@]2(C)CCC[C@]3(C)C(=O)O)C(=O)c2ccccc2C1=O (stereo partly drawn) [Compound 15, Dihydroprenyl lapachol 17β-dihydrojunicedrate]
IC50 at 24 h [3]: > 1000 µM
IC50 at 24 h [4]: > 1000 µM
activation at 125 µM (AGS cells [5]; Homo sapiens, AGS, 125 µM, read-out: increase of GSH content compared to untreated controls): 31%
activation at 250 µM (AGS cells [5]; Homo sapiens, AGS, 250 µM, read-out: increase of GSH content compared to untreated controls): 35%
GSH (AGS cells [5]; 125 µM): * 17.8 ± 0.9 nmol/10^6 cells
GSH (AGS cells [5]; 250 µM): * 18.4 ± 1.2 nmol/10^6 cells
IC50, inhibition of the lipoperoxidation [1]: IC50 25.3 ± 4.1 µg/mL
fold induction at 250 µM (AGS cells [6]; Homo sapiens, AGS, 250 µM, read-out: increase in PGE2 content): 5.4
fold induction at 500 µM (AGS cells [6]; Homo sapiens, AGS, 500 µM, read-out: increase in PGE2 content): 7.2
PGE2 (AGS cells [6]; 250 µM): 279 ± 20 pg/mL
PGE2 (AGS cells [6]; 500 µM): 372 ± 25 pg/mL
reduction in cell viability, NaT-induced damage (AGS cells [7]; 125 µM): 27%
reduction in cell viability, NaT-induced damage (AGS cells [7]; 250 µM): 27%
reduction in cell viability, NaT-induced damage (AGS cells [7]; 500 µM): 21%

CC(C)=CCC1=C(OC(=O)C[C@H](C)CC[C@H]2[C@@H](C)CCC3[C@]2(C)CCC[C@]3(C)C(=O)O)C(=O)C2=C(CCCC2)C1=O (stereo partly drawn) [Compound 17, Dihydroprenyl-5,6,7,8-tetrahydrolapachoyl 17β-dihydrojunicedrate]
% Inhibition of the lipoperoxidation [2]: 48%
IC50 at 24 h [3]: 60 ± 5 µM
IC50 at 24 h [4]: 44 ± 4 µM
activation at 7.5 µM (AGS cells [5]; Homo sapiens, AGS, 7.5 µM, read-out: increase of GSH content compared to untreated controls): 89%
activation at 15 µM (AGS cells [5]; Homo sapiens, AGS, 15 µM, read-out: increase of GSH content compared to untreated controls): 51%
GSH (AGS cells [5]; 7.5 µM): ** 25.8 ± 1.6 nmol/10^6 cells
GSH (AGS cells [5]; 15 µM): ** 20.5 ± 1.0 nmol/10^6 cells

COc1ccc2c(c1)c(CC(=O)O)c(C)n2C(=O)c1ccc(Cl)cc1 [Indomethacin, reference compound]
PGE2 (AGS cells [6]; 100 µM): Not detected

Cc1c(OCC(F)(F)F)ccnc1C[S+]([O-])c1nc2ccccc2[nH]1 (stereo not shown) [Lansoprazole, reference compound]
IC50 at 24 h [3]: 168 ± 8 µM
IC50 at 24 h [4]: 316 ± 11 µM

CC(=O)N[C@@H](CS)C(=O)O [NAC, N-acetyl-L-cysteine, reference compound]
activation at 750 µM (AGS cells [5]; Homo sapiens, AGS, 750 µM, read-out: increase of GSH content compared to untreated controls): 30%
GSH (AGS cells [5]; 750 µM): * 17.7 ± 1.4 nmol/10^6 cells

Sucralfate [reference compound]
reduction in cell viability, NaT-induced damage (AGS cells [7]; 4 mg/mL (580 µM)): 35%
